From patent publication US10351827B2, “Method for differentiating induced pluripotent stem cells into renal proximal tubular cell-like cells” (priority 2013, dated 2019)
Where two headings read alike, the source gives them in different places.

Tested on: iPS(Foreskin)-4-derived d8 HPTC-like cells
[1] = 1 μg/ml, overnight (16 h), qPCR, normalized to vehicle control (=1), mean +/- s.d., n=3
[2] = 10 μg/ml, overnight (16 h), qPCR, normalized to vehicle control (=1), mean +/- s.d., n=3
[3] = 100 μg/ml, overnight (16 h), qPCR, normalized to vehicle control (=1), mean +/- s.d., n=3
[4] = 1,000 μg/ml, overnight (16 h), qPCR, normalized to vehicle control (=1), mean +/- s.d., n=3

| Structure (SMILES) | IL6 Expression Levels (human, 16 h, 1 μg/ml) | IL8 Expression Levels (human, 16 h, 1 μg/ml) | IL6 Expression Levels (human, 16 h, 10 μg/ml) | IL8 Expression Levels (human, 16 h, 10 μg/ml) | IL6 Expression Levels (human, 16 h, 100 μg/ml) | IL8 Expression Levels (human, 16 h, 100 μg/ml) | IL6 Expression Levels (human, 16 h, 1000 μg/ml) | IL8 Expression Levels (human, 16 h, 1000 μg/ml) | IL6 Expression Levels [1] | IL8 Expression Levels [1] | IL6 Expression Levels [2] | IL8 Expression Levels [2] | IL6 Expression Levels [3] | IL8 Expression Levels [3] | IL6 Expression Levels [4] | IL8 Expression Levels [4] |
| --- | --- | --- | --- | --- | --- | --- | --- | --- | --- | --- | --- | --- | --- | --- | --- | --- |
| CCOc1ccc(NC(C)=O)cc1 [Phenacetin] | 7.2 ± 0.2 | 23.3 ± 3.1 | 7.0 ± 1.1 | 11.1 ± 0.8 | 5.3 ± 0.1 | 7.7 ± 4.7 | 0.7 ± 0.2 | 6.4 ± 2.1 |  |  |  |  |  |  |  |  |
| CCC[C@@H]1C[C@@H](C(=O)N[C@@H]([C@H]2O[C@H](SC)[C@H](O)[C@@H](O)[C@H]2O)[C@@H](C)O)N(C)C1 [Lincomycin] | 1.2 ± 0.1 | 1.2 ± 1.2 | 1.3 ± 0.1 | 1.2 ± 0.3 | 1.2 ± 0.1 | 2.4 ± 0.9 | 1.4 ± 0.2 | 6.1 ± 0.5 |  |  |  |  |  |  |  |  |
| C=CC[C@@H]1/C=C(\C)C[C@H](C)C[C@H](OC)[C@H]2O[C@@](O)(C(=O)C(=O)N3CCCC[C@H]3C(=O)O[C@H](/C(C)=C/[C@@H]3CC[C@@H](O)[C@H](OC)C3)[C@H](C)[C@@H](O)CC1=O)[C@H](C)C[C@@H]2OC [Tacrolimus] | 6.6 ± 0.6 | 7.8 ± 0.4 | 6.1 ± 0.2 | 5.1 ± 0.6 |  |  |  |  |  |  |  |  |  |  |  |  |
| O=[As]O[As]=O (stereo not shown) [Arsenic (III) oxide] |  |  |  |  |  |  |  |  | 1.5 ± 0.1 | 1.2 ± 0.5 | 5.2 ± 0.1 | 4.2 ± 0.1 | 14.2 ± 2.1 | 1.5 ± 0.2 | 8.2 ± 0.3 | 3.9 ± 1.6 |
| NCC(=O)O [Glycine] | 1.6 ± 0.1 | 1.6 ± 0.6 | 1.9 ± 0.3 | 3.1 ± 1.5 | 1.7 ± 0.2 | 2.5 ± 0.6 | 1.9 ± 0.2 | 4.9 ± 1.9 |  |  |  |  |  |  |  |  |
| [K+].[K+].[O]=[Cr](=[O])([O-])[O][Cr](=[O])(=[O])[O-] [Potassium dichromate] |  |  |  |  |  |  |  |  | 1.2 ± 0.4 | 0.5 ± 0.0 | 1.0 ± 0.0 | 0.7 ± 0.1 | 3.3 ± 0.3 | 0.8 ± 0.0 | 3.7 ± 0.4 | 1.2 ± 0.0 |
| CC(=O)[O-].CC(=O)[O-].[Pb+2] [Lead acetate] |  |  |  |  |  |  |  |  | 1.3 ± 0.3 | 0.4 ± 0.2 | 1.2 ± 0.3 | 1.3 ± 0.1 | 1.5 ± 0.1 | 5.0 ± 0.8 | 4.3 ± 0.8 | 29.4 ± 5.1 |
| CN[C@H](CC(C)C)C(=O)N[C@H]1C(=O)N[C@@H](CC(N)=O)C(=O)N[C@H]2C(=O)N[C@H]3C(=O)N[C@H](C(=O)N[C@H](C(=O)O)c4cc(O)cc(O)c4-c4cc3ccc4O)[C@H](O)c3ccc(c(Cl)c3)Oc3cc2cc(c3O[C@@H]2O[C@H](CO)[C@@H](O)[C@H](O)[C@H]2O[C@H]2C[C@](C)(N)[C@H](O)[C@H](C)O2)Oc2ccc(cc2Cl)[C@H]1O [Vancomycin] |  |  |  |  |  |  |  |  | 1.5 ± 0.3 | 0.7 ± 0.0 | 1.4 ± 0.1 | 0.6 ± 0.2 | 1.4 ± 0.1 | 2.9 ± 0.2 | 3.1 ± 0.2 | 98.5 ± 4.5 |
| [Cl][Cu][Cl] [Copper (II) chloride] |  |  |  |  |  |  |  |  | 1.2 ± 0.1 | 7.2 ± 0.6 | 2.2 ± 0.2 | 67.1 ± 18.1 | 22.5 ± 2.2 | 58.2 ± 3.2 | 13.4 ± 0.0 |  |
| NC(=O)c1ncn([C@@H]2O[C@H](CO)[C@@H](O)[C@H]2O)n1 [Ribavirin] | 1.4 ± 0.1 | 1.1 ± 0.4 | 1.5 ± 0.1 | 0.5 ± 0.1 | 1.2 ± 0.3 | 0.2 ± 0.0 | 1.0 ± 0.1 | 0.2 ± 0.0 |  |  |  |  |  |  |  |  |
| CC(C)[C@H](N)C(=O)OCCOCn1cnc2c(=O)[nH]c(N)nc21 [Valacyclovir] | 1.3 ± 0.1 | 1.5 ± 0.1 | 1.3 ± 0.1 | 1.4 ± 0.1 | 1.6 ± 0.1 | 1.0 ± 0.5 | 2.8 ± 0.4 | 32.5 ± 1.4 |  |  |  |  |  |  |  |  |
| [Cl][Au] [Gold (I) chloride] |  |  |  |  |  |  |  |  | 1.2 ± 0.2 | 0.9 ± 0.2 | 1.2 ± 0.1 | 0.9 ± 0.1 | 2.9 ± 0.2 | 2.0 ± 0.0 | 23.3 ± 0.4 | 1.2 ± 0.2 |
| COc1ccc2[nH]cc(CCNC(C)=O)c2c1 [Melatonin] | 6.5 ± 0.8 | 9.8 ± 2.4 | 6.1 ± 0.4 | 6.9 ± 1.0 | 4.4 ± 0.4 | 1.9 ± 0.9 | 1.1 ± 0.1 |  |  |  |  |  |  |  |  |  |
| [Bi+3].[Bi+3].[O-2].[O-2].[O-2] [Bismuth (III) oxide] |  |  |  |  |  |  |  |  | 1.2 ± 0.1 | 0.4 ± 0.1 | 1.3 ± 0.2 | 2.6 ± 0.2 | 2.1 ± 0.1 | 33.0 ± 1.6 | 3.6 ± 0.3 | 192.7 ± 18.4 |
| O=c1[nH]cc(F)c(=O)[nH]1 [5-Fluorouracil] | 6.2 ± 0.7 | 7.4 ± 1.4 | 6.4 ± 0.3 | 9.2 ± 1.4 | 9.2 ± 1.2 | 18.3 ± 2.2 | 1.1 ± 0.2 | 5.7 ± 0.5 |  |  |  |  |  |  |  |  |
| [Cl][Cd][Cl] [Cadmium chloride] |  |  |  |  |  |  |  |  | 3.6 ± 0.4 | 15.0 ± 0.8 | 10.9 ± 0.4 | 7.6 ± 0.4 | 10.3 ± 1.6 | 4.4 ± 0.6 | 11.8 ± 0.5 | 20.5 ± 8.3 |
| C[C@H]1O[C@H](O[C@H]2[C@H](O)[C@@H](O)[C@@H](O[C@H]3[C@H](O)[C@@H](O)C(O)O[C@@H]3CO)O[C@@H]2CO)[C@H](O)[C@@H](O)[C@@H]1N[C@H]1C=C(CO)[C@@H](O)[C@H](O)[C@H]1O (stereo partly shown) [Acarbose] | 1.2 ± 0.1 | 0.5 ± 0.1 | 1.5 ± 0.3 | 0.6 ± 0.2 | 1.3 ± 0.2 | 0.4 ± 0.1 | 1.4 ± 0.4 | 1.6 ± 0.2 |  |  |  |  |  |  |  |  |
